Measured values published in patent US9814699B2, “Chemical compounds” (Janssen Pharmaceuticals, Inc., priority 2009, dated 2017).

How the values were obtained:
[1] = system: HCV genotype 1a subgenomic replicon; test: HCV replicon assay, genotype 1a subgenomic replicon (luciferase); type: cell-based; conditions: Hepatitis C virus; genotype 1a replicon stable cell line, luciferase activity measured 48 hours later; read-out: Replicon 1A pEC50 (converted)
Procedure, shortened: (§1)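 Stable Huh-type bicistronic firefly-luciferase replicon cells (1b ET line with E1202G/T1280I/K1846T; 1a line) exposed 48 h to compounds from 0.03 pM to 50 μM final, 0.5–1% DMSO. Luciferase inhibition normalised to controls. EC50 from 11-point curves with four-parameter logistic fit; cytotoxicity by CellTiter-Glo.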

[2] = system: HCV genotype 1b subgenomic replicon; test: HCV replicon assay, genotype 1b subgenomic replicon (ET cell line, luciferase); type: cell-based; conditions: Hepatitis C virus; genotype 1b replicon ET cell line, luciferase activity measured 48 hours later; read-out: Replicon 1B pEC50 (converted)
Procedure, shortened: as §1

Row | SMILES | EC50 [1] | EC50 [2]
1 | COC(=O)N[C@H](C(=O)N1CCC[C@H]1c1ncc(-c2ccc(-c3ccc(-c4c[nH]c(C5CCC6(CCC(F)(F)CC6)N5C(C)=O)n4)cc3)cc2)[nH]1)C(C)C (stereo partly drawn) [Example 36, methyl ((1S)-1-{[(2S)-2-(4-{4′-[2-(1-acetyl-8,8-difluoro-1-azaspiro[4.5]dec-2-yl)-1H-imidazol-4-yl]-4-biphenylyl}-1H-imidazol-2-yl)-1-pyrrolidinyl]carbonyl}-2-methylpropyl)carbamate] | 25.1 nM | 0.1 nM
2 | COC(=O)N[C@H](C(=O)N1CCC[C@H]1c1ncc(-c2ccc(-c3ccc(-c4c[nH]c(C5CCC6(CCS(=O)(=O)CC6)N5C(=O)[C@@H](NC(=O)OC)C(C)C)n4)cc3)cc2)[nH]1)C(C)C (stereo partly drawn) [Example 37, methyl [(1S)-2-methyl-1-({(2S)-2-[4-(4′-{2-[1-((2S)-3-methyl-2-{[(methyloxy)carbonyl]amino}butanoyl)-8,8-dioxido-8-thia-1-azaspiro[4.5]dec-2-yl]-1H-imidazol-4-yl}-4-biphenylyl)-1H-imidazol-2-yl]-1-pyrrolidinyl}carbonyl)propyl]carbamate] | 12.6 nM | 0.316 nM
